Data as given in patent publication US8895585B2, “Nicotinamide derivative or salt thereof” (FUJIFILM Corporation, priority 2010, dated 2014).

Assays:
THP-1 cells = test: TNFα generation assay; format: cell-based, human; settings: Homo sapiens, THP-1, THP-1 cells; Table 22; read-out: IC50 in TNFα generation assay
Outline: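 THP-1 cells differentiated to macrophage-like cells with 10 ng/ml IFN-γ for 2 days, preincubated with compound 30 min at room temperature, then cultured 7 h on plates coated with human IgG (10 μg/ml). Secreted TNFα measured by ELISA or AlphaLISA.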

[1] = molecular target: T1, glutathione S-transferase (GST)-fused full-length human Syk protein (Homo sapiens, UniProt P43405); test: Syk enzyme assay; format: biochemical; settings: Syk enzyme assay, Test Example 1; read-out: IC50 of Syk-inhibitory activity
T1 construct: (GST)-fused full-length human Syk protein; GST (glutathione S-transferase); purchased Carna Biosciences
Outline: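 GST-tagged full-length human Syk (baculovirus) preincubated with compound 15 min at room temperature (pH 7.0, 10 mM MgCl2), then reacted 40 min with 0.4 μM biotinylated peptide substrate and 27 μM ATP (final). Phosphorylation read by HTRF (615/665 nm) after EDTA stop; IC50 reported.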

Row | SMILES | IC50 (THP-1 cells) | IC50 [1]
1 | NC(=O)c1cc(F)c(N[C@@H]2CCCC[C@@H]2N)nc1Nc1cnc(-n2cccn2)c(Cl)c1 [Example 006-446, 6-(((1R,2S)-2-aminocyclohexyl)amino)-2-((5-chloro-6-(1H-pyrazol-1-yl)pyridin-3-yl)amino)-5-fluoronicotinamide] | 130 to 200 nM | 10 to 50 nM
2 | NC(=O)c1cc(F)c(N[C@@H]2CCCC[C@@H]2N)nc1Nc1cnc(-n2cccn2)c(F)c1 [Example 006-447, 6-(((1R,2S)-2-aminocyclohexyl)amino)-5-fluoro-2-((5-fluoro-6-(1H-pyrazol-1-yl)pyridin-3-yl)amino)nicotinamide] | 130 to 200 nM | 10 to 50 nM
3 | NC(=O)c1cc(F)c(N[C@@H]2CCCC[C@@H]2N)nc1Nc1cnc(-n2cccn2)c(-n2nccn2)c1 [Example 006-449, 2-((6-(1H-pyrazol-1-yl)-5-(2H-1,2,3-triazol-2-yl)pyridin-3-yl)amino)-6-(((1R,2S)-2-aminocyclohexyl)amino)-5-fluoronicotinamide] | 130 to 200 nM | 50 to 100 nM
4 | CCCc1nn(C)c2ccc(Nc3nc(N[C@@H]4CCCC[C@@H]4N)c(F)cc3C(N)=O)cc12 [Example 006-456, 6-(((1R,2S)-2-aminocyclohexyl)amino)-5-fluoro-2-((1-methyl-3-propyl-1H-indazol-5-yl)amino)nicotinamide] | 130 to 200 nM | < 10 nM
5 | CCCc1nn(CC)c2ccc(Nc3nc(N[C@@H]4CCCC[C@@H]4N)c(F)cc3C(N)=O)cc12 [Example 006-457, 6-(((1R,2S)-2-aminocyclohexyl)amino)-2-((1-ethyl-3-propyl-1H-indazol-5-yl)amino)-5-fluoronicotinamide] | 130 to 200 nM | < 10 nM
6 | CCCc1nn(CCOC)c2ccc(Nc3nc(N[C@@H]4CCCC[C@@H]4N)c(F)cc3C(N)=O)cc12 [Example 006-458, 6-(((1R,2S)-2-aminocyclohexyl)amino)-5-fluoro-2-((1-(2-methoxyethyl)-3-propyl-1H-indazol-5-yl)amino)nicotinamide] | 130 to 200 nM | < 10 nM
7 | CCn1nc(C(C)C)c2cc(Nc3nc(N[C@H](CC4CC4)[C@H](C)N)c(F)cc3C(N)=O)ccc21 [Example 006-465, 6-(((2R,3S)-3-amino-1-cyclopropylbutan-2-yl)amino)-2-((1-ethyl-3-isopropyl-1H-indazol-5-yl)amino)-5-fluoronicotinamide] | 130 to 200 nM | < 10 nM
8 | COC[C@@H](Nc1nc(Nc2ccnc(OC)c2)c(C(N)=O)cc1F)[C@H](C)N [Example 006-470, 6-(((2S,3S)-3-amino-1-methoxybutan-2-yl)amino)-5-fluoro-2-((2-methoxypyridin-4-yl)amino)nicotinamide] | 65 to 130 nM | 10 to 50 nM
9 | NC(=O)c1cc(F)c(N[C@@H]2CCCC[C@@H]2N)nc1Nc1ccc2c(cnn2C2CC2)c1 [Example 006-472, 6-(((1R,2S)-2-aminocyclohexyl)amino)-2-((1-cyclopropyl-1H-indazol-5-yl)amino)-5-fluoronicotinamide] | 65 to 130 nM | < 10 nM
10 | NC(=O)c1cc(F)c(N[C@@H]2CCCC[C@@H]2N)nc1Nc1cccc2c1cnn2C1CC1 [Example 006-474, 6-(((1R,2S)-2-aminocyclohexyl)amino)-2-((1-cyclopropyl-1H-indazol-4-yl)amino)-5-fluoronicotinamide] | 65 to 130 nM | < 10 nM
11 | NC(=O)c1cc(F)c(N[C@@H]2CCCC[C@@H]2N)nc1Nc1ccc2c(c1)c(F)nn2C1CC1 [Example 006-475, 6-(((1R,2S)-2-aminocyclohexyl)amino)-2-((1-cyclopropyl-3-fluoro-1H-indazol-5-yl)amino)-5-fluoronicotinamide] | 130 to 200 nM | < 10 nM
12 | Cc1nn(C2CC2)c2ccc(Nc3nc(N[C@@H]4CCCC[C@@H]4N)c(F)cc3C(N)=O)cc12 [Example 006-477, 6-(((1R,2S)-2-aminocyclohexyl)amino)-2-((1-cyclopropyl-3-methyl-1H-indazol-5-yl)amino)-5-fluoronicotinamide] | 130 to 200 nM | < 10 nM
13 | CCc1nn(C2CC2)c2ccc(Nc3nc(N[C@@H]4CCCC[C@@H]4N)c(F)cc3C(N)=O)cc12 [Example 006-478, 6-(((1R,2S)-2-aminocyclohexyl)amino)-2-((1-cyclopropyl-3-ethyl-1H-indazol-5-yl)amino)-5-fluoronicotinamide] | 65 to 130 nM | < 10 nM

More lines, now with the values ahead:

Row | IC50 (THP-1 cells) | IC50 [1] | SMILES
14 | 65 to 130 nM | 50 to 100 nM | COCCn1nc(C)c2cc(Nc3nc(N[C@H](CC4CC4)[C@H](C)N)c(F)cc3C(N)=O)ccc21 [Example 006-444, 6-(((2R,3S)-3-amino-1-cyclopropylbutan-2-yl)amino)-5-fluoro-2-((1-(2-methoxyethyl)-3-methyl-1H-indazol-5-yl)amino)nicotinamide]
15 | 65 to 130 nM | < 10 nM | Cc1nn(CC(F)F)c2ccc(Nc3nc(N[C@H](CC4CC4)[C@H](C)N)c(F)cc3C(N)=O)cc12 [Example 006-445, 6-(((2R,3S)-3-amino-1-cyclopropylbutan-2-yl)amino)-2-((1-(2,2-difluoroethyl)-3-methyl-1H-indazol-5-yl)amino)-5-fluoronicotinamide]
16 | < 65 nM | < 10 nM | CCc1nn(C)c2ccc(Nc3nc(N[C@@H]4CCCC[C@@H]4N)c(F)cc3C(N)=O)cc12 [Example 006-451, 6-(((1R,2S)-2-aminocyclohexyl)amino)-2-((3-ethyl-1-methyl-1H-indazol-5-yl)amino)-5-fluoronicotinamide]
17 | < 65 nM | < 10 nM | CCc1nn(CC)c2ccc(Nc3nc(N[C@@H]4CCCC[C@@H]4N)c(F)cc3C(N)=O)cc12 [Example 006-452, 6-(((1R,2S)-2-aminocyclohexyl)amino)-2-((1,3-diethyl-1H-indazol-5-yl)amino)-5-fluoronicotinamide]
18 | < 65 nM | < 10 nM | CCc1nn(CCOC)c2ccc(Nc3nc(N[C@@H]4CCCC[C@@H]4N)c(F)cc3C(N)=O)cc12 [Example 006-453, 6-(((1R,2S)-2-aminocyclohexyl)amino)-2-((3-ethyl-1-(2-methoxyethyl)-1H-indazol-5-yl)amino)-5-fluoronicotinamide]
19 | 65 to 130 nM | < 10 nM | CCc1nn(CCF)c2ccc(Nc3nc(N[C@@H]4CCCC[C@@H]4N)c(F)cc3C(N)=O)cc12 [Example 006-454, 6-(((1R,2S)-2-aminocyclohexyl)amino)-2-((3-ethyl-1-(2-fluoroethyl)-1H-indazol-5-yl)amino)-5-fluoronicotinamide]
20 | 65 to 130 nM | < 10 nM | CCc1nn(CC(F)F)c2ccc(Nc3nc(N[C@@H]4CCCC[C@@H]4N)c(F)cc3C(N)=O)cc12 [Example 006-455, 6-(((1R,2S)-2-aminocyclohexyl)amino)-2-((1-(2,2-difluoroethyl)-3-ethyl-1H-indazol-5-yl)amino)-5-fluoronicotinamide]
21 | 65 to 130 nM | < 10 nM | CCCc1nn(CCF)c2ccc(Nc3nc(N[C@@H]4CCCC[C@@H]4N)c(F)cc3C(N)=O)cc12 [Example 006-459, 6-(((1R,2S)-2-aminocyclohexyl)amino)-5-fluoro-2-((1-(2-fluoroethyl)-3-propyl-1H-indazol-5-yl)amino)nicotinamide]
22 | 65 to 130 nM | < 10 nM | CCCc1nn(CC(F)F)c2ccc(Nc3nc(N[C@@H]4CCCC[C@@H]4N)c(F)cc3C(N)=O)cc12 [Example 006-460, 6-(((1R,2S)-2-aminocyclohexyl)amino)-2-((1-(2,2-difluoroethyl)-3-propyl-1H-indazol-5-yl)amino)-5-fluoronicotinamide]
23 | 65 to 130 nM | < 10 nM | CC(C)c1nn(C)c2ccc(Nc3nc(N[C@@H]4CCCC[C@@H]4N)c(F)cc3C(N)=O)cc12 [Example 006-461, 6-(((1R,2S)-2-aminocyclohexyl)amino)-5-fluoro-2-((3-isopropyl-1-methyl-1H-indazol-5-yl)amino)nicotinamide]
24 | 65 to 130 nM | < 10 nM | CCCc1nn(C)c2ccc(Nc3nc(N[C@H](CC4CC4)[C@H](C)N)c(F)cc3C(N)=O)cc12 [Example 006-464, 6-(((2R,3S)-3-amino-1-cyclopropylbutan-2-yl)amino)-5-fluoro-2-((1-methyl-3-propyl-1H-indazol-5-yl)amino)nicotinamide]
25 | 65 to 130 nM | 10 to 50 nM | NC(=O)c1cc(F)c(N[C@@H]2CCCC[C@@H]2N)nc1Nc1cnc(N2CCOCC2)c(Cl)c1 [Example 006-466, 6-(((1R,2S)-2-aminocyclohexyl)amino)-2-((5-chloro-6-morpholinopyridin-3-yl)amino)-5-fluoronicotinamide]
26 | < 65 nM | < 10 nM | CCn1ncc2cc(Nc3nc(N[C@H](COC)[C@H](C)N)c(F)cc3C(N)=O)ccc21 [Example 006-469, 6-(((2S,3S)-3-amino-1-methoxybutan-2-yl)amino)-2-((1-ethyl-1H-indazol-5-yl)amino)-5-fluoronicotinamide]
27 | < 65 nM | < 10 nM | CCn1ncc2cc(Nc3nc(N[C@H](C4CC4)[C@H](C)N)c(F)cc3C(N)=O)ccc21 [Example 006-471, 6-(((1R,2S)-2-amino-1-cyclopropylpropyl)amino)-2-((1-ethyl-1H-indazol-5-yl)amino)-5-fluoronicotinamide]
28 | < 65 nM | < 10 nM | NC(=O)c1cc(F)c(N[C@@H]2CCCC[C@@H]2N)nc1Nc1ccc2cnn(C3CC3)c2c1 [Example 006-473, 6-(((1R,2S)-2-aminocyclohexyl)amino)-2-((1-cyclopropyl-1H-indazol-6-yl)amino)-5-fluoronicotinamide]
